How the values were obtained:
dengue virus type 2 = test: Functional assay to measure dose dependent changes in antiviral-drug inhibitory efficacy against Dengue virus type 2 New Guinea C in Vero E6 miRFP670 cells (cotreated with P-gp inhibitor, CP100356). Cells are treated with antiviral candidates that are serially diluted, following infection, cells are fixed. EC50 is reported via analysis of fluorescence intensity using high-content imager. The …; type: organism-based, Chlorocebus sabaeus, Vero C1008; conditions: for EC90: P-gp concentration 500 nM, P-gp inhibitor CP100356
Zika virus = test: Functional CPE-based assay to measure dose dependent changes in antiviral-drug inhibitory efficacy against Zika virus MR766 in Vero E6 miRFP670 cells (cotreated with P-gp inhibitor, CP100356). Cells are treated with antiviral candidates that are serially diluted. EC50 is reported via analysis of MTS assay as a readout of CPE. The assay has been performed by KU Leuven.; type: organism-based, Chlorocebus sabaeus, Vero C1008; conditions: Zika virus

Work on `O=C1Cc2c(cccc2C(=O)Nc2ccc3c(c2)CCNCC3)N1` yielded an EC50 (dengue virus type 2; Dengue virus, Vero C1008) greater than 50 µM, an EC90 (dengue virus type 2; Dengue virus, Vero C1008, Maximum measured 144.677 %, Minimum measured 92.434 %) greater than 50 µM and an EC50 (Zika virus; Vero C1008) greater than 50 µM. For the same molecule, the EC90 (Zika virus; Vero C1008, Maximum measured 3.486 %, Minimum measured -0.899 %, P-gp concentration 500 nM, P-gp inhibitor CP100356) was greater than 50 µM.
`O=C(Nc1cc(Cl)cc(CNc2cccc(-c3nn[nH]n3)c2)c1)OCc1ccccc1` showed an EC50 (dengue virus type 2; Dengue virus, Vero C1008) greater than 25 µM and an EC90 (dengue virus type 2; Dengue virus, Vero C1008, Maximum measured 175.327 %, Minimum measured 92.337 %) greater than 25 µM.
Molecule `Cc1cccc(-c2nc3c(C(=O)Nc4ccc5c(c4)CNC5)cc(Cl)cc3[nH]2)c1O` has an EC50 (dengue virus type 2; Dengue virus, Vero C1008) of 46.9 µM, an EC90 (dengue virus type 2; Dengue virus, Vero C1008, Maximum measured 146.036 %, Minimum measured 86.561 %) greater than 50 µM and an EC90 (dengue virus type 2; Dengue virus, Vero C1008, Baseline response 0 %, Hill slope -5.285, Maximum measured 123.385 %, Maximum response 100 %, Minimum measured 41.68 %, R squared 0.576) greater than 50 µM. It also gave an EC50 (dengue virus type 2; vero c1008) greater than 50 µM, an EC50 (Zika virus; Vero C1008) greater than 50 µM and an EC90 (Zika virus; Vero C1008, Maximum measured 4.83 %, Minimum measured -9.413 %, P-gp concentration 500 nM, P-gp inhibitor CP100356) greater than 50 µM. The EC90 (Zika virus; Vero C1008, Baseline response 0 %, Hill slope 1.997, Maximum measured 9.723 %, Maximum response 100 %, Minimum measured -5.385 %, P-gp concentration 500 nM, R squared 0.475, P-gp inhibitor CP100356) was greater than 50 µM.
`O=C(Nc1cc(Cl)cc([C@H]2C[C@@H]2c2cccc(-c3nnn[nH]3)c2)c1)OCc1ccccc1` was tested, and the EC50 (dengue virus type 2; Dengue virus, Vero C1008) was greater than 25 µM and the EC90 (dengue virus type 2; Dengue virus, Vero C1008, Maximum measured 174.938 %, Minimum measured 87.593 %) was greater than 25 µM.
With `CC(=Cc1cccc(CN)c1)c1cc(Cl)cc(NC(=O)OCc2ccccc2)c1` the EC50 (dengue virus type 2; Dengue virus, Vero C1008) was greater than 6.25 µM and the EC90 (dengue virus type 2; Dengue virus, Vero C1008, Maximum measured 157.677 %, Minimum measured 102.187 %) was greater than 6.25 µM.
Work on `CNC(=O)[C@H](Nc1cccc(CN)c1)c1cc(Cl)cc(NC(=O)OCc2ccccc2)c1` yielded an EC50 (dengue virus type 2; Dengue virus, Vero C1008) of 7.81 µM and an EC90 (dengue virus type 2; Dengue virus, Vero C1008, Baseline response 0 %, EC90 CI (lower) 4.909 uM, EC90 CI (upper) 7.205 uM, Hill slope -8.054, Maximum measured 105.221 %, Maximum response 100 %, Minimum measured 2.373 %, R squared 0.934) of 10.3 µM.
In the case of `C=CC[C@H]1NCc2cc(NC(=O)c3cc(Cl)cc4[nH]ncc34)ccc21`, the EC50 (Zika virus; Vero C1008) is reported as greater than 50 µM and the EC90 (Zika virus; Vero C1008, Baseline response 0 %, Hill slope 0.168, Maximum measured 60.303 %, Maximum response 100 %, Minimum measured -6.598 %, P-gp concentration 500 nM, R squared 0.022, P-gp inhibitor CP100356) is reported as greater than 50 µM.
`N[C@H]1CC[C@H](c2ccc(NC(=O)c3cc(Cl)cc(NC(=O)OCc4ccccc4)c3)cc2)C1` showed an EC50 (dengue virus type 2; Dengue virus, Vero C1008) of 1.49 µM and an EC90 (dengue virus type 2; Dengue virus, Vero C1008, Baseline response 0 %, Hill slope -16.959, Maximum measured 155.273 %, Maximum response 100 %, Minimum measured 29.767 %, R squared 0.495) greater than 1.56 µM.
In the case of `Clc1cccc([C@H](C#Cc2ccccc2)Nc2cccc(-c3nn[nH]n3)c2)c1`, the EC50 (dengue virus type 2; Dengue virus, Vero C1008) is reported as greater than 6.25 µM and the EC90 (dengue virus type 2; Dengue virus, Vero C1008, Maximum measured 160.53 %, Minimum measured 108.244 %) is reported as greater than 6.25 µM.
For `CC(=Cc1cc(Cl)cc(NC(=O)OCc2ccccc2)c1)c1cccc(CN)c1`, the EC50 (dengue virus type 2; Dengue virus, Vero C1008) was greater than 1.56 µM and the EC90 (dengue virus type 2; Dengue virus, Vero C1008, Maximum measured 159.566 %, Minimum measured 81.442 %) was greater than 1.56 µM.
In the case of `N#C[C@H](Nc1cc(Cl)cc(NC(=O)OCc2ccccc2)c1)c1ccc(-c2nn[nH]n2)cc1`, the EC50 (dengue virus type 2; Dengue virus, Vero C1008) is reported as greater than 50 µM and the EC90 (dengue virus type 2; Dengue virus, Vero C1008, Baseline response 0 %, Hill slope -0.236, Maximum measured 132.412 %, Maximum response 100 %, Minimum measured 19.2 %, R squared 0.02) is reported as greater than 50 µM.
With `O=C(Nc1ccc2c(c1)CN[C@H]2C1CC1)c1cc(F)cc2[nH]ncc12` the EC50 (Zika virus; Vero C1008) was 6.28 µM and the EC90 (Zika virus; Vero C1008) was 7.09 µM.
`O=C(Nc1cc(Cl)cc(C(=O)Nc2ccc3c(c2)CCNC3)c1)OCc1ccccc1` gave an EC50 (dengue virus type 2; Dengue virus, Vero C1008) greater than 1.56 µM and an EC90 (dengue virus type 2; Dengue virus, Vero C1008, Maximum measured 159.578 %, Minimum measured 136.105 %) greater than 1.56 µM.
`C[C@@]1(O)[C@H](O)[C@@H](CO)O[C@H]1n1ccc(N)nc1=O` gave an EC50 (dengue virus type 2; Dengue virus, Vero C1008) of 116 µM and an EC90 (dengue virus type 2; Dengue virus, Vero C1008, Baseline response 0 %, Hill slope -2.692, Maximum measured 107.888 %, Maximum response 100 %, Minimum measured 21.977 %, R squared 0.958) greater than 200 µM.
`NCc1cccc(-c2csc3cc(C(=O)Nc4ccc5c(c4)CNC5)ccc23)c1` showed an EC50 (Zika virus; Vero C1008) of 2.4 µM and an EC90 (Zika virus; Vero C1008, Baseline response 0 %, Hill slope 1.279, Maximum measured 60.824 %, Maximum response 100 %, Minimum measured 10.172 %, P-gp concentration 500 nM, R squared 0.942, P-gp inhibitor CP100356) greater than 3.12 µM.
With `N[C@H]1Cc2ccc(NC(=O)c3cc(Cl)cc(NC(=O)OCc4ccccc4)c3)cc2C1` the EC50 (dengue virus type 2; Dengue virus, Vero C1008) was 1.64 µM and the EC90 (dengue virus type 2; Dengue virus, Vero C1008, Baseline response 0 %, EC90 CI (lower) 0.187 uM, EC90 CI (upper) 8.327 uM, Hill slope -7.929, Maximum measured 105.944 %, Maximum response 100 %, Minimum measured 3.386 %, R squared 0.874) was 2.17 µM.
